The results in this text go back to patent US20260265238A1, “COMPOUNDS AND PHARMACEUTICAL COMPOSITIONS THAT DEGRADE SWI/SNF-RELATED MATRIX-ASSOCIATED ACTIN-DEPENDENT REGULATOR OF CHROMATIN SUBFAMILY A” (Plexium, Inc., priority 2023, published 2026).

Assay [1] deals with T1, SMARCA2-HiBiT HeLa cells (protein which is expressed from the SMARCA2 gene) (Homo sapiens, UniProt P51531).
T1 construct: protein which is expressed from the SMARCA2 and SMARCA4 genes; host or cells: HeLa (SMARCA2-HiBiT engineered line)
T1 sequence (P51531 whole entry): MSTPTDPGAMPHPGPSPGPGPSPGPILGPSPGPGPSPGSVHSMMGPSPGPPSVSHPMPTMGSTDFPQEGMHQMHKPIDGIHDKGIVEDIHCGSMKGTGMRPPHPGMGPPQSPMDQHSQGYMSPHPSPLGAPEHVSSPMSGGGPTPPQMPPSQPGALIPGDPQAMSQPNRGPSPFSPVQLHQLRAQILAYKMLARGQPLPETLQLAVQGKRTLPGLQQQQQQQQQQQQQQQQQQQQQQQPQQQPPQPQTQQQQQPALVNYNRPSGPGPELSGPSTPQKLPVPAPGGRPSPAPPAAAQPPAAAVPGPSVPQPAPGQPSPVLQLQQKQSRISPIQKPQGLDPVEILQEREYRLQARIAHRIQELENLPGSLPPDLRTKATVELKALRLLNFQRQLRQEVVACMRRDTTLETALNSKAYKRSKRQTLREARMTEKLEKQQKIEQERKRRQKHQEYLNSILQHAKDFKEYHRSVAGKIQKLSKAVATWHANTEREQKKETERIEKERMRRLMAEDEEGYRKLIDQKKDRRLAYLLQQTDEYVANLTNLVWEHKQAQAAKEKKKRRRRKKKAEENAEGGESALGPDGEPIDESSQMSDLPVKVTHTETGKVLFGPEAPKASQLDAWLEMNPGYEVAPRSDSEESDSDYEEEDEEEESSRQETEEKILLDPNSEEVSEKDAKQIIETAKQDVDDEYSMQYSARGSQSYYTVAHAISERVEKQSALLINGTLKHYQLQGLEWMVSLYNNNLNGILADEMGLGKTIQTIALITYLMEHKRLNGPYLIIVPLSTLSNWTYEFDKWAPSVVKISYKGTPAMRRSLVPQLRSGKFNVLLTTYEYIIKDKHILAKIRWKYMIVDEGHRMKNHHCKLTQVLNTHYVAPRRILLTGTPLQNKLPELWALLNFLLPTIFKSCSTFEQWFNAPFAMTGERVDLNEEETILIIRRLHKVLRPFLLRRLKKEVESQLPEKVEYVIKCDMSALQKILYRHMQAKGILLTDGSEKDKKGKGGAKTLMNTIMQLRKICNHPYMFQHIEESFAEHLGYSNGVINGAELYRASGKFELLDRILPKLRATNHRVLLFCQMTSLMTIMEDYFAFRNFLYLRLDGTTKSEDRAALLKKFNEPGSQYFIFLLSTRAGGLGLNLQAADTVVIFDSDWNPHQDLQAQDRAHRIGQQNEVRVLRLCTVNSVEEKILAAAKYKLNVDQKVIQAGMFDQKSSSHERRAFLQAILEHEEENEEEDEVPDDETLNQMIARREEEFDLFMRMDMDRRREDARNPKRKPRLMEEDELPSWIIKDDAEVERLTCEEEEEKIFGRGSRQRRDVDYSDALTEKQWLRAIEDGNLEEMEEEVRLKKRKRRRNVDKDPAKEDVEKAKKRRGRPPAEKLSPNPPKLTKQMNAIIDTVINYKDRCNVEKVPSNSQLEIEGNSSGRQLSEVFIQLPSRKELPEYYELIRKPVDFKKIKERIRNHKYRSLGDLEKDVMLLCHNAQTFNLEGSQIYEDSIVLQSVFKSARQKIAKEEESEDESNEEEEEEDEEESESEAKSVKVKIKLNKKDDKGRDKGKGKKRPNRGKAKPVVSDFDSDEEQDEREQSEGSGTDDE
As to the kind of experiment: SMARCA2 degradation assay (HiBiT-fusion HeLa cell line, 24 h, luminescence). In kind it is cell-based. The essentials: (§1)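 HeLa cells carrying HiBiT-tagged SMARCA2 or SMARCA4 were seeded at 8,000 cells/well, allowed to attach overnight at 37° C., then given compounds in a 10-point dilution series (typically 10 μM to 300 pM) for 24 hours at 37° C. Remaining tagged protein was read by HiBiT lytic luminescence, and DC50s came from dose-response curves.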
For orientation: The HiBiT peptide binds its large partner to form an active luciferase.

The target in assay [2] is T2, SMARCA4-HiBiT HeLa cells (protein which is expressed from the SMARCA4 gene) (Homo sapiens, UniProt P51532).
T2 construct: protein which is expressed from the SMARCA2 and SMARCA4 genes; host or cells: HeLa (SMARCA4-HiBiT engineered line)
T2 sequence (P51532 whole entry): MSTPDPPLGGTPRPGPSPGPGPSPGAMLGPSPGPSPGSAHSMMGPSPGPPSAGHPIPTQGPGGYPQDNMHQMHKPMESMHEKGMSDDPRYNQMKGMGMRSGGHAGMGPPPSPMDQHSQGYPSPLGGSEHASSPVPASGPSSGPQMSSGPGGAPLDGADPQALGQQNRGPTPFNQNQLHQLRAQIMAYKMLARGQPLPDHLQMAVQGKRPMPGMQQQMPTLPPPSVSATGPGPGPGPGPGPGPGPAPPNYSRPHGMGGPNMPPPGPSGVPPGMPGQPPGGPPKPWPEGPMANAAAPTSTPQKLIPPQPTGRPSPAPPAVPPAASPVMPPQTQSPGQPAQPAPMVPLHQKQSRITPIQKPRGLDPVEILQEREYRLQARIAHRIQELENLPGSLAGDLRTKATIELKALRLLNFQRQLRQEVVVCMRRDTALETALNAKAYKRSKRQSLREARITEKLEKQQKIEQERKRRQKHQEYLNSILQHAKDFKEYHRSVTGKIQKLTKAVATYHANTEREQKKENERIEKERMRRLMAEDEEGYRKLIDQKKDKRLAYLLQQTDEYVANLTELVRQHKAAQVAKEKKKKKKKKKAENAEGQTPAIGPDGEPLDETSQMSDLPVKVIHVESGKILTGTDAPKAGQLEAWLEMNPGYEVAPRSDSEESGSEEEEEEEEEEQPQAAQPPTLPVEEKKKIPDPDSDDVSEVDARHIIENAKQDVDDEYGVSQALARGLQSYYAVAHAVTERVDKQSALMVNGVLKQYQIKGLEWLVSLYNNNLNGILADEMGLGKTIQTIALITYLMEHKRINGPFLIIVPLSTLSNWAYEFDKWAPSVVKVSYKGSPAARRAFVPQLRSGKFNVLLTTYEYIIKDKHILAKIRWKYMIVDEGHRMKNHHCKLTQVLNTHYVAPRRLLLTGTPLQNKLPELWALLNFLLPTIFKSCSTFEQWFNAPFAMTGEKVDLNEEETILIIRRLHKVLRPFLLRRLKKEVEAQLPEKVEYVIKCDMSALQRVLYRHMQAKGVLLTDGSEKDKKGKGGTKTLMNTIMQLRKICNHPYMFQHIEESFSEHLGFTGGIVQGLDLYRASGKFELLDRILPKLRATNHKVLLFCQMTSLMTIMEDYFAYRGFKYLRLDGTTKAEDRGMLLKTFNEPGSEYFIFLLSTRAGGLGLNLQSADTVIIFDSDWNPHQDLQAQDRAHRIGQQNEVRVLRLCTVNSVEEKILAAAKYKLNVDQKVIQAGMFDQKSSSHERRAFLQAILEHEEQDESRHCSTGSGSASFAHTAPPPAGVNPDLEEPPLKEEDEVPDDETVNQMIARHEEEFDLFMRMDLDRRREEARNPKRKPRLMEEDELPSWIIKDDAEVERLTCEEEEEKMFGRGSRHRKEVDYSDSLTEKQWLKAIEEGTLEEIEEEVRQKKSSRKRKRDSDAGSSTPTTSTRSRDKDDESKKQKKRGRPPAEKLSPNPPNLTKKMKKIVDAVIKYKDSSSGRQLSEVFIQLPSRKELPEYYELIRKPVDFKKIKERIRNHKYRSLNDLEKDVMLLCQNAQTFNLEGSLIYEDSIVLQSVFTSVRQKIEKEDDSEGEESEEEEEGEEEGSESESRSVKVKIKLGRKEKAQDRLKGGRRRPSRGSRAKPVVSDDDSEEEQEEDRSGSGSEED
As to the kind of experiment: SMARCA4 degradation assay (HiBiT-fusion HeLa cell line, 24 h, luminescence). In kind it is cell-based. The essentials:
as §1

By DC50 is commonly meant the midpoint of the concentration-degradation curve. A lower DC50 goes with degradation at low concentration. Broadly, the inhibition is the change of the read-out against control, counted positive when it falls. Low values mean little suppression, high ones strong suppression.

On to `NC/C=C/c1nccc(N2CCCN(c3cc(-c4ccccc4O)nnc3N)CC2)n1` [Compound P-113, (E)-2-(6-amino-5-(4-(2-(3-aminoprop-1-en-1-yl)pyrimidin-4-yl)-1,4-diazepan-1-yl)pyridazin-3-yl)phenol], for which the DC50 in assay [1] lay in the range of 50 to 500 nM; in assay [2], 500 to 5000 nM. Besides, in assay [1] (@ 1 μM), the “SMARCA2 % Degradation @ 1 μM” value is recorded as “++ (++=30-70%)”. The molecule further returned an inhibition at 1 µM in assay [2] (@ 1 μM) of under 30%.

`CNc1cc(N2CCCN(c3cc(-c4ccccc4O)nnc3N)CC2)nc(C#CCNC(=O)c2nn(C)c(C)c2C)n1` [Compound P-141, N-(3-(4-(4-(3-amino-6-(2-hydroxyphenyl)pyridazin-4-yl)-1,4-diazepan-1-yl)-6-(methylamino)pyrimidin-2-yl)prop-2-yn-1-yl)-1,4,5-trimethyl-1H-pyrazole-3-carboxamide]: the DC50 in assay [1] and in assay [2] was 500 to 5000 nM in each case. Besides, the “SMARCA2 % Degradation @ 1 μM” value in assay [1] (@ 1 μM) was “??”. In assay [2] (@ 1 μM), this molecule yielded an inhibition at 1 µM of 30 to 70%.

Regarding `CC(C)(C)OC(=O)N1CCC(C#Cc2nccc(N3CCCN(c4cc(-c5ccccc5O)nnc4N)CC3)n2)CC1` [Compound P-351, tert-butyl 4-[2-(4-{4-[3-amino-6-(o-hydroxyphenyl)-4-pyridazinyl]-1,4-diazepan-1-yl}-2-pyrimidinyl)ethynyl]-1-piperidinecarboxylate], the DC50 in assay [1] and in assay [2] was 500 to 5000 nM in each case. Besides, the “SMARCA2 % Degradation @ 1 μM” value in assay [1] (@ 1 μM) is listed as “++ (++=30-70%)”. In assay [2] (@ 1 μM), this molecule came in with an inhibition at 1 µM of 30 to 70%.

For `Nc1nnc(-c2ccccc2O)cc1N1CCN(c2ccnc(C#CCNC(=O)c3ccncc3)n2)CC1` [Compound P-56, N-(3-(4-(4-(3-amino-6-(2-hydroxyphenyl)pyridazin-4-yl)piperazin-1-yl)pyrimidin-2-yl)prop-2-yn-1-yl)isonicotinamide], the DC50 in assay [1] and in assay [2] was 50 to 500 nM each time. The “SMARCA2 % Degradation @ 1 μM” value in assay [1] (@ 1 μM) is on record as “++ (++=30-70%)”. In assay [2] (@ 1 μM), this molecule yielded an inhibition at 1 µM of 30 to 70%.

On to `Nc1nnc(-c2ccccc2O)cc1N1CCC2(CCN(c3ccnc(C#CCNC(=O)c4cc5ncccn5n4)n3)CC2)C1` [Compound P-34, N-(3-(4-(2-(3-amino-6-(2-hydroxyphenyl)pyridazin-4-yl)-2,8-diazaspiro[4.5]decan-8-yl)pyrimidin-2-yl)prop-2-yn-1-yl)pyrazolo[1,5-a]pyrimidine-2-carboxamide], for which the DC50 in assay [1] and in assay [2] was 50 to 500 nM each time. Also, in assay [1] (@ 1 μM), the “SMARCA2 % Degradation @ 1 μM” value is on record as “++ (++=30-70%)”. In assay [2] (@ 1 μM), this molecule displayed an inhibition at 1 µM of 30 to 70%.

As for `C[C@@H]1CCN(c2cc(-c3ccccc3O)nnc2N)CCN1c1ccnc(C#CCN2CCC(F)(F)C2)n1` [Compound P-243, o-{5-[(R)-4-{2-[3-(3,3-difluoro-1-pyrrolidinyl)-1-propynyl]-4-pyrimidinyl}-5-methyl-1,4-diazepan-1-yl]-6-amino-3-pyridazinyl} phenol], the DC50 in assay [1] and in assay [2] was 50 to 500 nM each time. Also, in assay [1] (@ 1 μM), the “SMARCA2 % Degradation @ 1 μM” value is reported as “++ (++=30-70%)”. Besides, in assay [2] (@ 1 μM), the inhibition at 1 µM is 30 to 70%.

Consider `Nc1nnc(-c2ccccc2O)cc1N1CCC2C1CCN2c1ccnc(C#CCNC(=O)c2cc3ncccn3n2)n1` (stereo not drawn) [Compound P-77, N-(3-(4-(4-(3-amino-6-(2-hydroxyphenyl)pyridazin-4-yl)hexahydropyrrolo[3,2-b]pyrrol-1(2H)-yl)pyrimidin-2-yl)prop-2-yn-1-yl)pyrazolo[1,5-a]pyrimidine-2-carboxamide], for which the DC50 in assay [1] is 500 to 5000 nM; in assay [2], 50 to 500 nM. In addition, the “SMARCA2 % Degradation @ 1 μM” value in assay [1] (@ 1 μM) is recorded as “+ (+=<30%)”. The inhibition at 1 µM in assay [2] (@ 1 μM) is 30 to 70%.

For the molecule `C[C@H]1CCN(c2cc(-c3ccccc3O)nnc2N)CCN1c1ccnc(C#CCN(C)CC(F)(F)F)n1` [Compound P-217, o-{5-[(S)-4-(2-{3-[N-methyl(2,2,2-trifluoroethyl)amino]-1-propynyl}-4-pyrimidinyl)-5-methyl-1,4-diazepan-1-yl]-6-amino-3-pyridaziny1}phenol], the DC50 in assay [1] and in assay [2] was 50 to 500 nM throughout. Moreover, the “SMARCA2 % Degradation @ 1 μM” value in assay [1] (@ 1 μM) is “++ (++=30-70%)”. Moreover, in assay [2] (@ 1 μM), the inhibition at 1 µM is under 30%.

In the case of `Nc1nnc(-c2ccccc2O)cc1N1CCCN(c2ccnc(C#CCOc3ncco3)n2)CC1` [Compound P-128, 2-(6-amino-5-(4-(2-(3-(oxazol-2-yloxy)prop-1-yn-1-yl)pyrimidin-4-yl)-1,4-diazepan-1-yl)pyridazin-3-yl)phenol], the DC50 in assay [1] was under 50 nM; in assay [2], 50 to 500 nM. Besides, in assay [1] (@ 1 μM), the “SMARCA2 % Degradation @ 1 μM” value was “+++ (+++=>70%)”. The molecule further came in with an inhibition at 1 µM in assay [2] (@ 1 μM) of 30 to 70%.

Consider `C[C@@H]1CCN(c2cc(-c3ccccc3O)nnc2N)CCN1c1nc(C#CCO)ncc1F` [Compound P-207, o-(5-{(R)-4-[5-fluoro-2-(3-hydroxy-1-propynyl)-4-pyrimidinyl]-5-methyl-1,4-diazepan-1-yl}-6-amino-3-pyridazinyl)phenol], for which the half-maximal degradation concentration (DC50) in assay [1] and in assay [2] was 500 to 5000 nM in each case. Moreover, the “SMARCA2 % Degradation @ 1 μM” value in assay [1] (@ 1 μM) is on record as “++ (++=30-70%)”. In assay [2] (@ 1 μM), this molecule registered an inhibition at 1 µM of under 30%.

As for `Nc1nnc(-c2ccccc2O)cc1N1CCCN(c2ccnc(C#CCN3CC(=O)NC(=O)C3)n2)CC1` [Compound P-364, 4-[3-(4-{4-[3-amino-6-(o-hydroxyphenyl)-4-pyridazinyl]-1,4-diazepan-1-yl}-2-pyrimidinyl)-2-propynyl]-2,6-piperazinedione], the DC50 in assay [1] and in assay [2] was 500 to 5000 nM throughout. In addition, in assay [1] (@ 1 μM), the “SMARCA2 % Degradation @ 1 μM” value is “++ (++=30-70%)”. Also, the inhibition at 1 µM in assay [2] (@ 1 μM) is under 30%.

Turning to `Nc1nnc(-c2ccccc2O)cc1N1CCCN(c2ccnc(C#CCN3C(=O)c4ccccc4C3=O)n2)CC1` [Compound P-375, 2-[3-(4-{4-[3-amino-6-(o-hydroxyphenyl)-4-pyridaziny1]-1,4-diazepan-1-yl}-2-pyrimidinyl)-2-propynyl]-1,3-isoindolinedione], the DC50 in assay [1] and in assay [2] was 50 to 500 nM throughout. Also, the “SMARCA2 % Degradation @ 1 μM” value in assay [1] (@ 1 μM) is given as “+++ (+++=>70%)”. In addition, in assay [2] (@ 1 μM), the “SMARCA4 % Degradation @ 1 μM” value is reported as “++ (++=30-70%)”.

Take `CN1CCCC1C#Cc1nccc(N2CCCN(c3cc(-c4ccccc4O)nnc3N)CC2)n1` (stereo not drawn) [Compound P-350, 0-[6-amino-5-(4-{2-[2-(1-methyl-2-pyrrolidinyl)cthynyl]-4-pyrimidinyl}-1,4-diazepan-1-yl)-3-pyridazinyl]phenol]: the DC50 in assay [1] and in assay [2] was 50 to 500 nM each time. Also, in assay [1] (@ 1 μM), the “SMARCA2 % Degradation @ 1 μM” value is listed as “+++ (+++=>70%)”. Besides, in assay [2] (@ 1 μM), the inhibition at 1 µM was over 70%.

With `C[C@@H]1CCN(c2cc(-c3ccccc3O)nnc2N)CCN1c1cc(C#CCn2ccnc2)ncc1F` [Compound P-417, 0-{5-[(R)-4-{5-fluoro-2-[3-(1-imidazolyl)-1-propynyl]-4-pyridyl}-5-methyl-1,4-diazepan-1-yl]-6-amino-3-pyridazinyl} phenol], the DC50 in assay [1] and in assay [2] was 50 to 500 nM each time. Moreover, the “SMARCA2 % Degradation @ 1 μM” value in assay [1] (1 μM) is recorded as “++ (++=30-70%)”. Moreover, the inhibition at 1 µM in assay [2] (1 μM) lay in the range of 30 to 70%.

Regarding `Nc1nnc(-c2ccccc2O)cc1N1CCC2(CCCN(c3ccnc(C#CCO)n3)C2)CC1` [Compound P-123, 2-(6-amino-5-(2-(2-(3-hydroxyprop-1-yn-1-yl)pyrimidin-4-yl)-2,9-diazaspiro[5.5]undecan-9-yl)pyridazin-3-yl)phenol], the values for the DC50 in assay [1] and in assay [2] were 50 to 500 nM and under 50 nM, respectively. In assay [1] (@ 1 μM), the “SMARCA2 % Degradation @ 1 μM” value is recorded as “++ (++=30-70%)”. For the same molecule, the inhibition at 1 µM in assay [2] (@ 1 μM) fell in the range of 30 to 70%.
